{"source": "patent US11292807B2", "about": "(OCEANS LTD., priority 2015, dated 2022)", "key": {"[1]": {"tested_on": "THP-1 (acute monocytic leukemia)", "test": "CIMA assay, cell viability, THP-1", "conditions": "for Fold change in viability AVG: THP-1"}, "[2]": {"tested_on": "MDA-MB", "conditions": "MDA-MB"}, "[3]": {"tested_on": "PC3", "test": "CIMA assay, cell viability, PC3", "conditions": "for Fold change in viability AVG: PC3"}, "[4]": {"tested_on": "MDA-MB", "test": "cells", "conditions": "Homo sapiens, read-out: Average cell viability, MDA-MB"}, "[5]": {"tested_on": "A549 (lung carcinoma)", "test": "CIMA assay (colorimetric indicator of metabolic activity), cell viability, A549", "conditions": "for Fold change in viability AVG: A549"}, "[6]": {"tested_on": "CCD1079SK (fibroblast, noncancerous but proliferating)", "test": "CIMA assay, cell viability, CCD1079SK", "conditions": "CCD"}, "[7]": {"test": "CIMA assay, cell viability, CCD1079SK", "conditions": "human, Average cell viability, CCD"}, "[8]": {"tested_on": "SKOV3 (ovarian adenocarcinoma)", "test": "CIMA assay, cell viability, SKOV3", "conditions": "for Fold change in viability AVG: SKOV"}, "[9]": {"tested_on": "U373 (glioblastoma-astrocytoma)", "test": "CIMA assay, cell viability, U373", "conditions": "for Fold change in viability AVG: U373"}}, "note": "Read-outs that look alike come from different tables or passages of the source."}
{"smiles": "CC/C=C\\C/C=C\\C/C=C\\C/C=C\\CCC(=O)OC(COC(=O)CCCCCCC/C=C\\C/C=C\\C/C=C\\CC)COC1OC(CO)C(O)C(O)C1O", "note": "(stereo not shown) [Compound 14, MGDG C18:3/C16:4]", "values": [{"measurement": "viability at 1 µg/mL", "setting": "[1]; Homo sapiens, THP-1, read-out: Average cell viability, THP-1, 1 ug/mL", "result": 99, "unit": "%"}, {"measurement": "viability at 10 µg/mL", "setting": "[1]; Homo sapiens, THP-1, read-out: Average cell viability, THP-1, 10 ug/mL", "result": 100, "unit": "%"}, {"measurement": "viability at 50 µg/mL", "setting": "[1]; Homo sapiens, THP-1, read-out: Average cell viability, THP-1, 50 ug/mL", "result": 62, "unit": "%"}, {"measurement": "viability at 100 µg/mL", "setting": "[1]; Homo sapiens, THP-1, read-out: Average cell viability, THP-1, 100 ug/mL", "result": 51, "unit": "%"}, {"measurement": "THP-1 AVG", "setting": "[1]; THP-1, sample at 1 ug/mL", "result": 1.13}, {"measurement": "THP-1 AVG", "setting": "[1]; THP-1, sample at 10 ug/mL", "result": 1.14}, {"measurement": "THP-1 AVG", "setting": "[1]; THP-1, sample at 50 ug/mL", "result": 0.70}, {"measurement": "THP-1 AVG", "setting": "[1]; THP-1, sample at 100 ug/mL", "result": 0.58}, {"measurement": "Fold change in viability AVG", "setting": "[1]; 1 ug/mL", "result": 1.12}, {"measurement": "Fold change in viability AVG", "setting": "[1]; 10 ug/mL", "result": 1.14}, {"measurement": "Fold change in viability AVG", "setting": "[1]; 50 ug/mL", "result": 0.70}, {"measurement": "Fold change in viability AVG", "setting": "[1]; 100 ug/mL", "result": 0.58}, {"measurement": "MDA-MB AVG", "setting": "[2]; sample at 1 ug/mL", "result": 1.13}, {"measurement": "MDA-MB AVG", "setting": "[2]; sample at 10 ug/mL", "result": 1.11}, {"measurement": "MDA-MB AVG", "setting": "[2]; sample at 50 ug/mL", "result": 0.74}, {"measurement": "MDA-MB AVG", "setting": "[2]; sample at 100 ug/mL", "result": 0.20}, {"measurement": "Fold change in viability AVG", "setting": "[2]; 1 ug/mL", "result": 1.13}, {"measurement": "Fold change in viability AVG", "setting": "[2]; 10 ug/mL", "result": 1.11}, {"measurement": "Fold change in viability AVG", "setting": "[2]; 50 ug/mL", "result": 0.74}, {"measurement": "Fold change in viability AVG", "setting": "[2]; 100 ug/mL", "result": 0.20}, {"measurement": "viability at 1 µg/mL", "setting": "[3]; Homo sapiens, PC-3, read-out: Average cell viability, PC3, 1 ug/mL", "result": 103, "unit": "%"}, {"measurement": "viability at 10 µg/mL", "setting": "[3]; Homo sapiens, PC-3, read-out: Average cell viability, PC3, 10 ug/mL", "result": 98, "unit": "%"}, {"measurement": "viability at 50 µg/mL", "setting": "[3]; Homo sapiens, PC-3, read-out: Average cell viability, PC3, 50 ug/mL", "result": 66, "unit": "%"}, {"measurement": "viability at 100 µg/mL", "setting": "[3]; Homo sapiens, PC-3, read-out: Average cell viability, PC3, 100 ug/mL", "result": 12, "unit": "%"}, {"measurement": "PC3 AVG", "setting": "[3]; PC3, sample at 1 ug/mL", "result": 1.07}, {"measurement": "PC3 AVG", "setting": "[3]; PC3, sample at 10 ug/mL", "result": 1.01}, {"measurement": "PC3 AVG", "setting": "[3]; PC3, sample at 50 ug/mL", "result": 0.68}, {"measurement": "PC3 AVG", "setting": "[3]; PC3, sample at 100 ug/mL", "result": 0.13}, {"measurement": "Fold change in viability AVG", "setting": "[3]; 1 ug/mL", "result": 1.07}, {"measurement": "Fold change in viability AVG", "setting": "[3]; 10 ug/mL", "result": 1.01}, {"measurement": "Fold change in viability AVG", "setting": "[3]; 50 ug/mL", "result": 0.68}, {"measurement": "Fold change in viability AVG", "setting": "[3]; 100 ug/mL", "result": 0.13}, {"measurement": "viability at 1 µg/mL", "setting": "[4]; 1 ug/mL", "result": 104, "unit": "%"}, {"measurement": "viability at 10 µg/mL", "setting": "[4]; 10 ug/mL", "result": 102, "unit": "%"}, {"measurement": "viability at 50 µg/mL", "setting": "[4]; 50 ug/mL", "result": 68, "unit": "%"}, {"measurement": "viability at 100 µg/mL", "setting": "[4]; 100 ug/mL", "result": 18, "unit": "%"}, {"measurement": "A549 AVG", "setting": "[5]; A549, sample at 1 ug/mL", "result": 1.15}, {"measurement": "A549 AVG", "setting": "[5]; A549, sample at 10 ug/mL", "result": 1.18}, {"measurement": "A549 AVG", "setting": "[5]; A549, sample at 50 ug/mL", "result": 1.03}, {"measurement": "A549 AVG", "setting": "[5]; A549, sample at 100 ug/mL", "result": 0.86}, {"measurement": "Fold change in viability AVG", "setting": "[5]; 1 ug/mL", "result": 1.15}, {"measurement": "Fold change in viability AVG", "setting": "[5]; 10 ug/mL", "result": 1.18}, {"measurement": "Fold change in viability AVG", "setting": "[5]; 50 ug/mL", "result": 1.03}, {"measurement": "Fold change in viability AVG", "setting": "[5]; 100 ug/mL", "result": 0.86}, {"measurement": "viability at 1 µg/mL", "setting": "[5]; Homo sapiens, A549, read-out: Average cell viability, A549, 1 ug/mL", "result": 99, "unit": "%"}, {"measurement": "viability at 10 µg/mL", "setting": "[5]; Homo sapiens, A549, read-out: Average cell viability, A549, 10 ug/mL", "result": 101, "unit": "%"}, {"measurement": "viability at 50 µg/mL", "setting": "[5]; Homo sapiens, A549, read-out: Average cell viability, A549, 50 ug/mL", "result": 88, "unit": "%"}, {"measurement": "viability at 100 µg/mL", "setting": "[5]; Homo sapiens, A549, read-out: Average cell viability, A549, 100 ug/mL", "result": 74, "unit": "%"}, {"measurement": "Fold change in viability AVG", "setting": "[6]; 1 ug/mL", "result": 1.12}, {"measurement": "Fold change in viability AVG", "setting": "[6]; 10 ug/mL", "result": 1.05}, {"measurement": "Fold change in viability AVG", "setting": "[6]; 50 ug/mL", "result": 0.54}, {"measurement": "Fold change in viability AVG", "setting": "[6]; 100 ug/mL", "result": 0.21}, {"measurement": "viability at 72 h, 1 ug/mL", "setting": "[7]; CCD1079SK fibroblast cells (noncancerous, proliferating), 1 ug/mL", "result": 102, "unit": "%"}, {"measurement": "viability at 72 h, 10 ug/mL", "setting": "[7]; CCD1079SK fibroblast cells (noncancerous, proliferating), 10 ug/mL", "result": 96, "unit": "%"}, {"measurement": "viability at 72 h, 50 ug/mL", "setting": "[7]; CCD1079SK fibroblasts (noncancerous, proliferating), 50 ug/mL", "result": 49, "unit": "%"}, {"measurement": "viability at 72 h, 100 ug/mL", "setting": "[7]; CCD1079SK fibroblasts (noncancerous, proliferating), 100 ug/mL", "result": 19, "unit": "%"}, {"measurement": "viability at 1 µg/mL", "setting": "[8]; Homo sapiens, SK-OV-3, read-out: Average cell viability, SKOV, 1 ug/mL", "result": 109, "unit": "%"}, {"measurement": "viability at 10 µg/mL", "setting": "[8]; Homo sapiens, SK-OV-3, read-out: Average cell viability, SKOV, 10 ug/mL", "result": 97, "unit": "%"}, {"measurement": "viability at 50 µg/mL", "setting": "[8]; Homo sapiens, SK-OV-3, read-out: Average cell viability, SKOV, 50 ug/mL", "result": 92, "unit": "%"}, {"measurement": "viability at 100 µg/mL", "setting": "[8]; Homo sapiens, SK-OV-3, read-out: Average cell viability, SKOV, 100 ug/mL", "result": 67, "unit": "%"}, {"measurement": "Fold change in viability AVG", "setting": "[8]; 1 ug/mL", "result": 1.17}, {"measurement": "Fold change in viability AVG", "setting": "[8]; 10 ug/mL", "result": 1.05}, {"measurement": "Fold change in viability AVG", "setting": "[8]; 50 ug/mL", "result": 0.89}, {"measurement": "Fold change in viability AVG", "setting": "[8]; 100 ug/mL", "result": 0.72}, {"measurement": "viability at 1 µg/mL", "setting": "[9]; Homo sapiens, U373 MG, read-out: Average cell viability, U373, 1 ug/mL", "result": 109, "unit": "%"}, {"measurement": "viability at 10 µg/mL", "setting": "[9]; Homo sapiens, U373 MG, read-out: Average cell viability, U373, 10 ug/mL", "result": 100, "unit": "%"}, {"measurement": "viability at 50 µg/mL", "setting": "[9]; Homo sapiens, U373 MG, read-out: Average cell viability, U373, 50 ug/mL", "result": 41, "unit": "%"}, {"measurement": "viability at 100 µg/mL", "setting": "[9]; Homo sapiens, U373 MG, read-out: Average cell viability, U373, 100 ug/mL", "result": 9, "unit": "%"}, {"measurement": "U373 AVG", "setting": "[9]; U373, sample at 1 ug/mL", "result": 1.10}, {"measurement": "U373 AVG", "setting": "[9]; U373, sample at 10 ug/mL", "result": 1.02}, {"measurement": "U373 AVG", "setting": "[9]; U373, sample at 50 ug/mL", "result": 0.42}, {"measurement": "U373 AVG", "setting": "[9]; U373, sample at 100 ug/mL", "result": 0.09}, {"measurement": "Fold change in viability AVG", "setting": "[9]; 1 ug/mL", "result": 1.10}, {"measurement": "Fold change in viability AVG", "setting": "[9]; 10 ug/mL", "result": 1.02}, {"measurement": "Fold change in viability AVG", "setting": "[9]; 50 ug/mL", "result": 0.42}, {"measurement": "Fold change in viability AVG", "setting": "[9]; 100 ug/mL", "result": 0.09}]}
